Target: T1, human Farnesoid X Receptor (FXR) ligand binding domain (GST-FXR LBD) (Homo sapiens, UniProt Q96RI1)
T1 construct: purchased Invitrogen
T1 sequence (Q96RI1 193-472 isoform Q96RI1-2): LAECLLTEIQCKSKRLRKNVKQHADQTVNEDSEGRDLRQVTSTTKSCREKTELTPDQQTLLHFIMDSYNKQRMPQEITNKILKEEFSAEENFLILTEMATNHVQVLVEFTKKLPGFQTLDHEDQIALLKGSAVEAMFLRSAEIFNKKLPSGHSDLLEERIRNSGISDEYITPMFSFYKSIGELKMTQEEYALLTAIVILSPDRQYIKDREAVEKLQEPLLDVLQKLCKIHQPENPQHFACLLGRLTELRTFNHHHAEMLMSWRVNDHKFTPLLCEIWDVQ
Test: Human GST-FXR LBD co-activator interaction assay (HTRF)
Format: biochemical
Conditions: GST-FXR LBD / biotin-SRC-1 peptide FRET; response relative to GW4064; read-out: FXR Co-activator interaction assay (EC50)
Method in brief: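 FRET (HTRF) read-out of ligand-induced binding between GST-FXR LBD and an SRC-1 peptide, detected with anti-GST cryptate and streptavidin-XL665 in buffer with 50 mM KF. Response % was normalized to DMSO and to the maximal GW4064 response. EC50 came from a four-parameter fit.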

Row | Structure (SMILES) | EC50
1 | O=C(O)c1ccc(N2[C@@H]3CC[C@H]2C[C@@H](OCc2c(-c4ccccc4C4CC4)noc2C2CC2)C3)nc1 [Example 30-24] | 4 nM
2 | Cc1cc(C(=O)O)cnc1N1[C@@H]2CC[C@H]1C[C@@H](OCc1c(-c3c(F)cccc3F)noc1C1CC1)C2 [Example 30-25] | 3 nM
3 | Cc1cc(N2C3CC[C@H]2CC(OCc2c(-c4c(F)cccc4F)noc2C2CC2)C3)ncc1C(=O)O (some centres unmarked) [Example 30-26] | 7 nM
4 | O=C(O)c1cccc(N2[C@@H]3CC[C@H]2C[C@@H](OCc2c(-c4ccccc4OC(F)F)noc2C2CC2)C3)n1 [Example 30-27] | 7 nM
5 | COC(=O)c1cc(C)c2nc(N3C4CC[C@H]3CC(OCc3c(-c5ccccc5OC(F)(F)F)noc3C3CC3)C4)sc2c1 (some centres unmarked) [Example 30-28] | 12 nM
6 | Cc1cc(C(=O)O)cc2sc(N3C4CC[C@H]3CC(OCc3c(-c5ccccc5OC(F)(F)F)noc3C3CC3)C4)nc12 (some centres unmarked) [Example 30-29] | 0.5 nM
7 | COC(=O)c1cc(C)c2nc(N3C4CC[C@H]3CC(OCc3c(-c5ccccc5C(F)(F)F)noc3C3CC3)C4)sc2c1 (some centres unmarked) [Example 30-30] | 120 nM
8 | Cc1cc(C(=O)O)cc2sc(N3C4CC[C@H]3CC(OCc3c(-c5ccccc5C(F)(F)F)noc3C3CC3)C4)nc12 (some centres unmarked) [Example 30-31] | 7 nM
9 | COC(=O)c1cc(C)c2nc(N3[C@@H]4CC[C@H]3C[C@@H](OCc3c(-c5c(F)cccc5F)noc3C3CC3)C4)sc2c1 [Example 30-32] | 149 nM
10 | Cc1cc(C(=O)O)cc2sc(N3C4CC[C@H]3CC(OCc3c(-c5c(F)cccc5F)noc3C3CC3)C4)nc12 (some centres unmarked) [Example 30-33] | 0.7 nM
11 | Cc1cc(C(=O)O)cc2sc(N3C4CC[C@H]3CC(OCc3c(-c5ccccc5F)noc3C3CC3)C4)nc12 (some centres unmarked) [Example 30-34] | 1.8 nM
12 | Cc1cc(C(=O)O)cc2sc(N3C4CC[C@H]3CC(OCc3c(-c5ccc(F)cc5)noc3C3CC3)C4)nc12 (some centres unmarked) [Example 30-35] | 46 nM
13 | Cc1ccccc1-c1noc(C2CC2)c1COC1CC2CC[C@@H](C1)N2c1nc2c(C)cc(C(=O)O)cc2s1 (some centres unmarked) [Example 30-36] | 1.1 nM
14 | COC(=O)c1cc(C)c2nc(N3C4CC[C@H]3CC(OCc3c(-c5ccccc5C)noc3C3CC3)C4)sc2c1 (some centres unmarked) [Example 30-37] | 140 nM
15 | Cc1cc(C(=O)O)cc2sc(N3[C@@H]4CC[C@H]3C[C@@H](OCc3c(-c5ccc(F)cc5F)noc3C3CC3)C4)nc12 [Example 30-38] | 1.8 nM
16 | COC(=O)c1cc(Br)c2nc(N3C4CC[C@H]3CC(OCc3c(-c5ccccc5OC(F)(F)F)noc3C3CC3)C4)sc2c1 (some centres unmarked) [Example 30-39] | 36 nM
17 | O=C(O)c1cc(Br)c2nc(N3C4CC[C@H]3CC(OCc3c(-c5ccccc5OC(F)(F)F)noc3C3CC3)C4)sc2c1 (some centres unmarked) [Example 30-40] | 0.7 nM
18 | O=C(O)c1cc(C2CC2)nc(N2C3CC[C@H]2CC(OCc2c(-c4ccccc4OC(F)F)noc2C2CC2)C3)n1 (some centres unmarked) [Example 30-41] | 4 nM
19 | O=C(O)c1cc(C2CC2)nc(N2C3CC[C@H]2CC(OCc2c(-c4ccccc4OC(F)(F)F)noc2C2CC2)C3)n1 (some centres unmarked) [Example 30-42] | 3 nM
20 | O=C(O)c1cc(C2CC2)nc(N2C3CC[C@H]2CC(OCc2c(-c4ccccc4C(F)(F)F)noc2C2CC2)C3)n1 (some centres unmarked) [Example 30-43] | 4.6 nM
21 | Cc1nc(N2C3CC[C@H]2CC(OCc2c(-c4ccccc4OC(F)(F)F)noc2C2CC2)C3)ccc1C(=O)O (some centres unmarked) [Example 30-44] | 8 nM
22 | Cc1nc(N2C3CC[C@H]2CC(OCc2c(-c4ccccc4C(F)(F)F)noc2C2CC2)C3)ccc1C(=O)O (some centres unmarked) [Example 30-45] | 18 nM
23 | Cc1ccccc1-c1noc(C2CC2)c1CO[C@H]1C[C@H]2CC[C@@H](C1)N2c1ccc(C(=O)O)c(C)n1 [Example 30-46] | 220 nM
24 | Cc1nc(N2[C@@H]3CC[C@H]2C[C@@H](OCc2c(-c4c(F)cccc4F)noc2C2CC2)C3)ccc1C(=O)O [Example 30-47] | 120 nM

Row | Structure (SMILES) | EC50
25 | Cc1nc(N2[C@@H]3CC[C@H]2C[C@@H](OCc2c(-c4ccccc4F)noc2C2CC2)C3)ccc1C(=O)O [Example 30-48] | 34 nM
26 | Cc1cccc(C)c1-c1noc(C2CC2)c1COC1CC2CC[C@@H](C1)N2c1ccc(C(=O)O)c(C)n1 (some centres unmarked) [Example 30-49] | 140 nM
27 | Cc1nc(N2[C@@H]3CC[C@H]2C[C@@H](OCc2c(-c4cccc(F)c4)noc2C2CC2)C3)ccc1C(=O)O [Example 30-50] | 700 nM
28 | Cc1cccc(F)c1-c1noc(C2CC2)c1CO[C@H]1C[C@H]2CC[C@@H](C1)N2c1ccc(C(=O)O)c(C)n1 [Example 30-51] | 52 nM
29 | Cc1nc(N2C3CC[C@H]2CC(OCc2c(-c4c(F)cccc4Cl)noc2C2CC2)C3)ccc1C(=O)O (some centres unmarked) [Example 30-52] | 26 nM
30 | O=C(O)c1ccc2nc(N3C4CC[C@H]3CC(OCc3c(-c5ccccc5OC(F)(F)F)noc3C3CC3)C4)ccc2c1 (some centres unmarked) [Example 30-53] | 1 nM
31 | O=C(O)c1ccc2nc(N3C4CC[C@H]3CC(OCc3c(-c5ccccc5C(F)(F)F)noc3C3CC3)C4)ccc2c1 (some centres unmarked) [Example 30-54] | 16 nM
32 | O=C(O)c1cccc2nc(N3C4CC[C@H]3CC(OCc3c(-c5ccccc5OC(F)(F)F)noc3C3CC3)C4)ccc12 (some centres unmarked) [Example 30-55] | 1 nM
33 | O=C(O)c1ccc2c(N3C4CC[C@H]3CC(OCc3c(-c5ccccc5OC(F)(F)F)noc3C3CC3)C4)ncnc2c1 (some centres unmarked) [Example 30-56] | 5.7 nM
34 | Cn1ccc2c(N3C4CC[C@H]3CC(OCc3c(-c5ccccc5OC(F)(F)F)noc3C3CC3)C4)ncc(C(=O)O)c21 (some centres unmarked) [Example 30-58] | 210 nM
35 | O=C(O)c1cnn2ccc(N3C4CC[C@H]3CC(OCc3c(-c5ccccc5OC(F)(F)F)noc3C3CC3)C4)nc12 (some centres unmarked) [Example 30-59] | 92 nM
36 | O=C(O)c1cnc2ccc(N3C4CC[C@H]3CC(OCc3c(-c5ccccc5OC(F)(F)F)noc3C3CC3)C4)nn12 (some centres unmarked) [Example 30-60] | 94 nM
37 | O=C(O)c1ccc2nc(N3C4CC[C@H]3CC(OCc3c(-c5ccc(F)cc5F)noc3C3CC3)C4)sc2c1 (some centres unmarked) [Example 30-61] | 2 nM
38 | O=C(O)c1ccc(N2C3CC[C@H]2CC(OCc2c(-c4ccc(F)cc4F)noc2C2CC2)C3)nc1 (some centres unmarked) [Example 30-63] | 57 nM
39 | COc1cc(C(=O)O)cc2sc(N3C4CC[C@H]3CC(OCc3c(-c5cccc(F)c5F)noc3C3CC3)C4)nc12 (some centres unmarked) [Example 30-64] | 7 nM
40 | O=C(O)c1ccc(N2[C@@H]3CC[C@H]2C[C@@H](OCc2c(-c4cccc(F)c4F)noc2C2CC2)C3)nc1 [Example 30-65] | 86 nM
41 | Cc1cc(C(=O)O)nc(N2C3CC[C@H]2CC(OCc2c(-c4cccc(F)c4F)noc2C2CC2)C3)n1 (some centres unmarked) [Example 30-66] | 220 nM
42 | COc1cc(C(=O)O)cc2sc(N3[C@@H]4CC[C@H]3C[C@@H](OCc3c(-c5ccccc5F)noc3C3CC3)C4)nc12 [Example 30-67] | 0.5 nM
43 | Cc1cc(C(=O)O)nc(N2C3CC[C@H]2CC(OCc2c(-c4ccccc4F)noc2C2CC2)C3)n1 (some centres unmarked) [Example 30-68] | 13 nM
44 | O=C(O)c1ccc(N2[C@@H]3CC[C@H]2C[C@@H](OCc2c(-c4ccccc4F)noc2C2CC2)C3)nc1 [Example 30-69] | 21 nM
45 | O=C(O)c1ccc2nc(N3C4CC[C@H]3CC(OCc3c(-c5c(Cl)cccc5Cl)noc3C3CC3)C4)sc2c1 (some centres unmarked) [Example 30-70] | 0.2 nM
46 | COc1cc(C(=O)O)cc2sc(N3[C@@H]4CC[C@H]3C[C@@H](OCc3c(-c5c(Cl)cccc5Cl)noc3C3CC3)C4)nc12 [Example 30-71] | 0.3 nM
47 | O=C(O)c1ccc(N2C3CC[C@H]2CC(OCc2c(-c4c(Cl)cccc4Cl)noc2C2CC2)C3)nc1 (some centres unmarked) [Example 30-72] | 1.4 nM

Reference: US9150568B2, “Compositions and methods for modulating FXR” (NOVARTIS AG, priority 2010, dated 2015)
